Laboratory results from US20040067998A1, “Antifungal and/or antiparasitic pharmaceutical composition and novel indole derivatives as active principle of such a composition” (priority 2003, published 2004).
≈ marks a conversion by molar mass, not a printed value. Where “and” joins values, the source holds several entries; their conditions need not be identical. Equal values may be shown once. Entries after “also recorded” stand apart in the source; their conditions may differ. Read-outs that look alike come from different tables or passages of the source.

Key:
[1] = system: Aspergillus fumigatus (strain n°AF 980003); assay: Antifungal activity on a clinical strain of Aspergillus fumigatus (Alamar Blue microplate test); type: cell-based; settings: Aspergillus fumigatus, strain AF980003, read-out: CMI or CI80 Aspergillus fumigatus (AF980003)
[2] = system: promastigote stage of Leishmania mexicana; assay: Antiparasitic activity on the promastigote form of Leishmania (MTT); type: cell-based; settings: for IC50: read-out: CI50 Leishmania mexicana Promastigotes
[3] = system: Candida albicans (strain n° CA980001); assay: Antifungal activity on a clinical strain of Candida albicans (MTT colorimetric microplate test); type: cell-based; settings: strain CA980001, read-out: CMI or CI80 Candida albicans (CA980001)
[4] = system: Candida parapsilosis (2 strains); assay: Antifungal activity in vitro on clinical strains of Candida: parapsilosis (2 strains); type: cell-based
[5] = system: Candida albicans (CA98001); assay: Antifungal activity in vivo on a model of disseminated candidiasis; design: species or system female Swiss mice
[6] = system: clinical strains of Candida; assay: Antifungal activity in vitro on several clinical strains of Candida (overall statement over all strains); type: cell-based; settings: summary of Table 41
[7] = system: Candida tropicalis (1 strain); assay: Antifungal activity in vitro on clinical strains of Candida: tropicalis (1 strain); type: cell-based; settings: strain CT980002 (Candida tropicalis)
[8] = system: Candida lusitaniae (1 strain); assay: Antifungal activity in vitro on clinical strains of Candida: lusitaniae (1 strain); type: cell-based
[9] = system: Candida krusei (4 strains); assay: Antifungal activity in vitro on clinical strains of Candida: krusei (4 strains); type: cell-based
[10] = system: Candida albicans (4 strains); assay: Antifungal activity in vitro on clinical strains of Candida: albicans (4 strains); type: cell-based
[11] = system: synthesis of ergosterol; assay: Mechanism of action: quantification of ergosterol (HPLC and UV spectrophotometry); type: cell-based
Description: The principal mechanism of action of the triazole derivatives is the inhibition of the synthesis of ergosterol leading to instability of the cell membrane. […] These two techniques require a prior saponification of the sample followed by an extraction of the sterols present. The results obtained are expressed in μg of ergosterol per g of sample. The activity of the derivatives studied is expressed by their capacity to inhibit the synthesis of ergosterol compared to an untreated control sample.

[12] = system: Leishmania major; assay: Anti-leishmanian activity in vivo on a model of cutaneo-mucosal and visceral leishmaniasis; design: species or system male BALB/c mice
Experimental: (1999), Croft et al. (1993) and Hill et al. (1983). The animals used (Centre d'élevage R. Janvier, Le Genest-St-France) were male BALB/c mice, aged 7 weeks at the time of inoculation of the parasites. This operation was performed in accordance with the legislation relating to animal experimentation. […] Days after the inoculation, the treatment was administered intraperitoneally for 10 days. Three weeks after the treatment, its effectiveness was determined by determining the parasite level in the liver, spleen, popliteal ganglion and the cutaneous lesion.

[13] = system: intracellular amastigote form of Leishmania mexicana; assay: Anti-leishmanian activity on the amastigote form in peritoneal macrophages of BALB/c mice; type: cell-based
[14] = Leishmania mexicana, promastigotes, 36 h at 26° C., MTT
[15] = Candida albicans, 24 h at 37° C., MTT
[16] = Test N°3, 3 × 20 mg/kg/d for 5 d intraperitoneal
[17] = compound 45 intraperitoneally for 10 days, dose not given, three weeks after treatment

In the case of `CCN1CCc2cc(Br)cc(C(c3ccc(F)cc3)n3ccnc3)c21` (centres unmarked) [Cpsé 51, 5-Bromo-1-ethyl-7-[(4-fluorophenyl)(1H-imidazol-1-yl)methyl]indoline], the MIC ([1]; Alamar Blue) is reported as over 100 µM, the IC50 [2, 14] is reported as 59.2 µM and 23.8 µg/mL and the melting point is reported as 120 to 123 °C. It also gave an MIC [3, 15] of over 100 µM.
In the case of `OC(Cn1cncn1)(Cn1ccc2ccccc21)c1ccc(Cl)cc1Cl` (centres unmarked) [compound 78], the “activity against Candida parapsilosis (in words)” value ([4]; clinical strains) is reported as “very active”, the “CI80 on clinical strains of Candida” value ([4]; strain CP980001 (Candida parapsilosis)) is reported as under 0.01 µM and the “CI80 on clinical strains of Candida” value ([4]; strain CP980002 (Candida parapsilosis)) is reported as 0.53 ± 0.12 µM. For the same compound, the “effect of treatment on the survival of the animals (in words)” value ([5]; Test N°2, 2 × 30 mg/kg/d for 5 d intraperitoneally, monitored 14 days (78: from D9 to D14)) was “significantly prolonged the survival”, the “survival at D14” value [5, 16] was 100% and the “survival at D18” value [5, 16] was 75%. The “survival greater than that of the reference treatment (ketoconazole 20 mg/kg)” value ([5]; Test N°3, 3 × 20 mg/kg/d, experiment continued for 4 more days (D18)) was 25%, the “survival at D10” value ([5]; Test N°4, 3 × 20 mg/kg/d for 5 d, treatment intraperitoneal or per os) was 100% and the “activity against different strains of Candida (in words)” value [6] was “most active”. For the same compound, the IC50 ([2]; promastigotes) was under 1000 nM, the “CI80 on clinical strains of Candida” value [7] was under 0.01 µM and the “activity against Candida lusitaniae (in words)” value ([8]; clinical strain) was “very active”. The “CI80 on clinical strains of Candida” value ([8]; strain CL980001 (Candida lusitaniae)) was under 0.01 µM, the “activity against Candida krusei (in words)” value ([9]; clinical strains, b748: one strain) was “active; also recorded: very active” and the “CI80 on clinical strains of Candida” value ([9]; strain CK980001 (Candida krusei)) was under 0.01 µM. The “CI80 on clinical strains of Candida” value ([9]; strain CK980002 (Candida krusei)) was 7.2 ± 0.1 µM, the “CI80 on clinical strains of Candida” value ([9]; strain CK980003 (Candida krusei)) was 9.2 ± 0.04 µM and the “CI80 on clinical strains of Candida” value ([9]; strain CK980004 (Candida krusei)) was 0.3 ± 0.1 µM. For the same compound, the “activity against strains of Candida albicans (in words)” value ([10]; clinical strains) was “active; also recorded: very active”, the “CI80 on clinical strains of Candida” value ([10]; strain CA980001 (Candida albicans)) was under 0.001 µM and the “CI80 on clinical strains of Candida” value ([10]; strain CA980002 (Candida albicans)) was under 0.01 µM. For the same compound, the “CI80 on clinical strains of Candida” value ([10]; strain CA980003 (Candida albicans)) was under 0.01 µM, the “CI80 on clinical strains of Candida” value ([10]; strain CA980005 (Candida albicans)) was under 0.01 µM and the “inhibition of the synthesis of ergosterol (in words)” value ([11]; preliminary results) was “strong inhibition”. The “reduction of the presence of ergosterol (HPLC determination)” value ([11]; treatment for 24 hours at 10 μg, HPLC) was 70%, the “ergosterol in the treated sample (UV spectrophotometry, in words)” value ([11]; treatment for 24 hours at 10 μg, UV spectrophotometry) was “absence of ergosterol” and the MIC [3] was under 0.001 µM.
With `Clc1ccc(Cn2cc(C3(Cn4ccnc4)CCCC3)c3ccccc32)cc1` [Cpsé 63, 1-[1-(4-Chlorobenzyl)-1H-indol-3yl]-1-(1H-imidazol-1-ylmethyl)cyclopentane] the melting point was 91 to 92 °C.
For `Clc1ccc(Cn2cc(CCn3ccnc3)c3ccccc32)cc1` [Cpsé 59, 1-(4-Chlorobenzyl)-3-(2-1H-imidazol-1-ylethyl)-1H-indole], the melting point was 78 to 80 °C.
In the case of `CNC[C@H](O)[C@@H](O)[C@H](O)[C@H](O)CO.[O]=[Sb](=[O])[OH]` [Glucantime ®, meglumine antimoniate, reference compound], the “reduction of the hepatic parasite level” value ([12]; Glucantime 10 mg/Kg/d, 10 days) is reported as 74%, the “reduction of the spleen parasite level” value ([12]; Glucantime 10 mg/Kg/d, 10 days) is reported as 82% and the “CI50 Leishmania mexicana Promastigotes” value [2] is reported as 15 ± 0.26 mg/mL. For the same compound, the “IC50 on the amastigote stage of Leishmania mexicana” value [13] was 48.7 µg/mL.
In the case of `CCn1cc(C(c2ccc(Cl)cc2Cl)n2cncn2)c2cc(Br)ccc21` (centres unmarked) [Cpsé 47, 5-Bromo-1-ethyl-3-[(2,4-dichlorophenyl)(1H-1,2,4-triazol-1yl)methyl]-1H-indole], the MIC ([1]; Alamar Blue) is reported as over 100 µM, the IC50 [2, 14] is reported as 25 µM and 8.07 µg/mL and the melting point is reported as 124 to 126 °C. The MIC [3, 15] was over 100 µM.
For `OC(Cn1cncn1)(Cn1ccc2ccccc21)c1ccc(Cl)cc1Cl` (centres unmarked) [Cpsé 78, 2-(2,4-Dichlorophenyl)-1-(1,2,4-1H-triazol-1-yl)-3-(indol-1-yl)propan-2-ol], the “parasite level in the kidneys compared with the control group (in words)” value [5, 16] was “significant reduction”, the “reduction of the hepatic parasite level” value [12, 17] was 79% and the “reduction of the spleen parasite level” value [12, 17] was 98.9%. The MIC [1] was over 100 µM, the “activity against Leishmania mexicana (in words)” value [2] was “most active” and the IC50 ([2]; Leishmania mexicana) was 0.1 µg/mL and 230 nM. For the same compound, the “activity against the intracellular amastigote form of Leishmania (in words)” value [13] was “very active”, the IC50 ([13]; Leishmania mexicana, Peritoneal macrophage, intracellular amastigote form, read-out: CI50 Intracellular amastigotes) was 1.5 ± 0.01 µg/mL (≈ 3.87 µM) and the MIC ([3]; Candida albicans, 24 h) was over 100 µM.
